We go through two compounds from patent US20250325625A1, “ANTIMICROBIAL ASSOCIATION IN THE TREATMENT OF P. AERUGINOSA BIOFILM-ASSOCIATED INFECTIONS” (Zambon S.P.A., priority 2022, published 2025).

The subject of assay [1] is P. aeruginosa strains. The assay can be described thus: Antimicrobial susceptibility (MIC), reference broth microdilution method. The assay is classed as cell-based. As to conditions: isolate FC237, in the presence of NAC.
Assay [2] deals with P. aeruginosa Z154 and Z34 preformed biofilms in ASM. The assay can be described thus: Artificial Sputum Medium (ASM) biofilm model. The assay is classed as cell-based. The method, then: Methods. The potential antibiofilm synergism of NAC/colistin combinations was further investigated using an in vitro ASM biofilm model (Kirchner et al. 2012 Immunology 64:e3857), in order to mimic P. aeruginosa biofilm conditions within the CF mucus. […] In brief, biofilms were grown in ASM in 24-well tissue culture treated plates, for 72 hours at 35° C. under static conditions. Preformed biofilms were then exposed to NAC 8000 mg/L and colistin 64 mg/L, alone and in combination. […] After 24 hours of exposure (i.e., 35° C., static conditions), bacterial biofilms were disrupted by 30 minutes of sonication followed by manual pipetting, and the median cfu per mL (cfu/mL) was determined following the same protocol described for the Nunc-TSP lid assay. Data from this biofilm model were obtained in at least three independent experiments, with at least twelve replicates per condition per experiment.

In assay [3] the test system is P. aeruginosa strains. The assay can be described thus: Antimicrobial susceptibility (MIC), reference broth microdilution method. The assay is classed as cell-based. The method, then:
Fifteen clinical isolates were from CF, a MDR clinical isolate from Respiratory Tract Infection (RTI) from an Intensive Care Unit (ICU), and the reference strain P. aeruginosa PAO1 (Table 1). Identification was performed by MALDI-TOF MS (Bruker, Shimadzu). Antimicrobial susceptibility was determined using the reference broth microdilution method (CLSIMethods2018). Whole genome sequencing of clinical isolates was performed with the Illumina (San Diego, CA, USA) MiSeq platform, using a 2×150 bp paired-end approach. Raw reads were assembled using SPAdes (Bankevich et al. 2012 J Comput Biol 19(5):455-77.), and draft genomes were used to determine MLST- and O-types at the Oxford PubMLST site (https://pubmlst.org/) (Jolley et al. 2018 Wellcome Open Res 3:124) and at the Center for Genomic Epidemiology site (https://cge.cbs.dtu.dk/services/PAst-1.0/) (ThraneJCM2016), respectively. The complete genome of P. aeruginosa Z154 was obtained by combining results from Illumina with those obtained using the Oxford Nanopore Technologies (Oxford, UK) MinION platform, and de novo assembly was generated using Unicycler v0.4.4.

Assay [4] concerns P. aeruginosa Z154 planktonic culture. Briefly: Time-kill assays against planktonic cultures under aerobic and anaerobic conditions. The assay is classed as cell-based. The conditions noted are these: colistin concentration higher than 0.25 mg/L, data not shown. The method, then:
Methods. Time-kill assays were performed according to CLSI guidelines (CLSI Methods M26A) with the colistin-susceptible strain Z154. Colistin 0.25 mg/L was tested alone and in combination with NAC 8000 mg/L under both aerobic and anaerobic conditions. […] The medium (CAMHB) used to obtain anoxic cultures was placed under anaerobic atmosphere by using AnaeroGen kit (Oxoid) for 3 days prior to use and during the whole experiment. The killing curves were carried out in borosilicate glass bottles with a final volume of 20 mL of CAMHB. At 0, 2, 4, 8 and 24 hours of exposure ten-fold dilutions were plated on TSA, and the number of cfu/mL was determined (detection limit, 17 cfu/mL). Data were obtained from at least four independent experiments, with two replicates per condition per experiment.

Assay [5] relates to collection of respiratory pathogens. The conditions noted are these: high NAC concentrations; Landini et al. 2016; cited from earlier work.
For assay [6], the system named is P. aeruginosa preformed biofilms. The assay can be described thus: Biofilm susceptibility testing, Nunc-TSP lid system (Calgary biofilm device), preformed biofilms. The assay is classed as cell-based. The conditions noted are these: P. aeruginosa Z154, NAC 8000 mg/L. The method, then:
In the present invention the Calgary biofilm device (also referred to as Nunc-TSP lid system in the experimental part) was the method selected to test the in vitro antibiofilm activity of colistin and NAC, alone or in combination. NAC stock solutions (100 g/L) were prepared immediately before use. NAC powder (Zambon, Bresso, Italy) was dissolved in sterile distilled water, pH was adjusted at 6.5-6.8 with NaOH 10 M and the solution was filtered through a 0.22-μm membrane filter. All experiments were performed in cation-adjusted Mueller-Hinton broth (CAMHB) (Becton Dickinson, Milan, Italy), unless otherwise specified, starting from an appropriately concentrated medium to avoid broth dilution when NAC solution were used.
Colistin Colistin stock solutions (10 mg/L) were prepared immediately before use, by dissolving colistin powder (colistin sulfate, AppliChem, Darmstadt, Germany) in sterile distilled water.
Assay. Biofilm susceptibility testing was first performed using the Nunc-TSP lid system (Thermo Fisher Scientific, Waltham, MA, USA), as described previously (Harrison J J et al., Nat Protoc, 2010; 5: 1236-54). Briefly, biofilms were grown for 24 hours in CAMHB at 35° C. under static conditions. […] Median cfu per peg (cfu/peg) was then determined by plating 10 μL of appropriate dilutions of the recovery medium onto tryptic soy agar (TSA) (Oxoid) and incubating for 24 hours at 35° C. […]

In brackets after ≈: the same amount, converted by molar mass. Where two headings read alike, the source gives them in different places. Some results are limits rather than exact numbers.

With colistin [CST], the “colistin MIC reduced in the presence of NAC (fraction of MIC)” value in the assay on P. aeruginosa strains [1] is 1/64. Moreover, the “concentration of colistin which allowed to observe a synergism” value in assay [2] (ASM model, with NAC 8000 mg/L) was 32 ×MIC. The “antibiofilm activity of colistin in absence of NAC” value in assay [2] (higher colistin concentrations (>64 mg/L), data not shown) was “eradication of the biofilm cultures”. Further, in assay [2] (lower colistin concentrations, preliminary experiments, data not shown), the colistin antibiofilm activity entry is “did not show either colistin antibiofilm activity”. For the same compound, in the assay on P. aeruginosa strains [3] (colistin-susceptible strains), the “colistin MIC values” lay in the range of 0.001 to 0.002 mg/mL. The “MIC” value came out at 0.512 mg/mL with P. aeruginosa strains [3] (strain FC237, non-mucoid, CF, colistin-resistant); 0.008 mg/mL with P. aeruginosa strains [3] (strain FC238, non-mucoid, CF, colistin-resistant); 0.004 mg/mL in the assay with P. aeruginosa strains [3] (strain FZ99, non-mucoid, RTI ICU, colistin-resistant); 0.002 mg/mL in the assay with P. aeruginosa strains [3] (strain M1, mucoid, CF); 0.002 mg/mL in the assay on P. aeruginosa strains [3] (strain M4, mucoid, CF); 0.002 mg/mL in the assay on P. aeruginosa strains [3] (strain M7, mucoid, CF). Further, the minimum inhibitory concentration (MIC) in the assay on P. aeruginosa strains [3] (strain M13, mucoid, CF) came to 0.001 mg/mL; in the assay on P. aeruginosa strains [3] (strain M19, mucoid, CF), 0.001 mg/mL; against P. aeruginosa strains [3] (strain M25, mucoid, CF) it was 0.002 mg/mL; against P. aeruginosa strains [3] (strain M32, mucoid, CF), 0.002 mg/mL; against P. aeruginosa strains [3] (strain M42, mucoid, CF), 0.002 mg/mL; in the assay on P. aeruginosa strains [3] (strain PAO1, non-mucoid, wound), 0.002 mg/mL. In addition, the minimum inhibitory concentration (MIC) with P. aeruginosa strains [3] (strain Z33, non-mucoid, CF) is 0.001 mg/mL; against P. aeruginosa strains [3] (strain Z34, non-mucoid, CF), 0.002 mg/mL; against P. aeruginosa strains [3] (strain Z35, non-mucoid, CF) it was 0.001 mg/mL; in the assay on P. aeruginosa strains [3] (strain Z152, mucoid, CF), 0.002 mg/mL; in the assay with P. aeruginosa strains [3] (strain Z154, mucoid, CF) it was 0.002 mg/mL. In addition, the “effect on planktonic cultures” value in assay [4] was “eradication of the planktonic cultures”.

Turning to `CC(=O)N[C@@H](CS)C(=O)O` [NAC, N-acetylcysteine], the “antibiofilm activity of NAC alone” value in assay [2] (P. aeruginosa Z154, ASM model, NAC 8000 mg/L) is reported as “not observed”; in assay [6], “observed”. Besides, the MIC in the assay with P. aeruginosa strains [3] (Pseudomonas aeruginosa, PAO1, strain PAO1, non-mucoid, wound, read-out: MIC) is greater than 64 mg/mL; in the assay on P. aeruginosa strains [3] (Pseudomonas aeruginosa, strain FC237, non-mucoid, CF, colistin-resistant, read-out: MIC) it was greater than 32 mg/mL; in the assay on P. aeruginosa strains [3] (Pseudomonas aeruginosa, strain FC238, non-mucoid, CF, colistin-resistant, read-out: MIC) it was greater than 32 mg/mL; in the assay on P. aeruginosa strains [3] (Pseudomonas aeruginosa, strain FZ99, non-mucoid, RTI ICU, colistin-resistant, read-out: MIC), 64 mg/mL (≈ 392 mM); in the assay on P. aeruginosa strains [3] (Pseudomonas aeruginosa, strain M1, mucoid, CF, read-out: MIC), 16 mg/mL (≈ 98 mM); in the assay on P. aeruginosa strains [3] (Pseudomonas aeruginosa, strain M4, mucoid, CF, read-out: MIC), 32 mg/mL (≈ 196 mM). Moreover, the MIC in the assay on P. aeruginosa strains [3] (Pseudomonas aeruginosa, strain M7, mucoid, CF, read-out: MIC) was 64 mg/mL (≈ 392 mM); in the assay on P. aeruginosa strains [3] (Pseudomonas aeruginosa, strain M13, mucoid, CF, read-out: MIC) it was 32 mg/mL (≈ 196 mM); in the assay with P. aeruginosa strains [3] (Pseudomonas aeruginosa, strain M19, mucoid, CF, read-out: MIC), 64 mg/mL (≈ 392 mM); in the assay with P. aeruginosa strains [3] (Pseudomonas aeruginosa, strain M25, mucoid, CF, read-out: MIC), 16 mg/mL (≈ 98 mM); in the assay on P. aeruginosa strains [3] (Pseudomonas aeruginosa, strain M32, mucoid, CF, read-out: MIC), 16 mg/mL (≈ 98 mM); with P. aeruginosa strains [3] (Pseudomonas aeruginosa, strain M42, mucoid, CF, read-out: MIC), greater than 32 mg/mL. In addition, the minimum inhibitory concentration (MIC) in the assay on P. aeruginosa strains [3] (Pseudomonas aeruginosa, strain Z33, non-mucoid, CF, read-out: MIC) was 16 mg/mL (≈ 98 mM); in the assay with P. aeruginosa strains [3] (Pseudomonas aeruginosa, strain Z34, non-mucoid, CF, read-out: MIC) it was greater than 16 mg/mL; in the assay on P. aeruginosa strains [3] (Pseudomonas aeruginosa, strain Z35, non-mucoid, CF, read-out: MIC) it was 16 mg/mL (≈ 98 mM); with P. aeruginosa strains [3] (Pseudomonas aeruginosa, strain Z152, mucoid, CF, read-out: MIC), 8 mg/mL (≈ 49 mM); in the assay on P. aeruginosa strains [3] (Pseudomonas aeruginosa, strain Z154, mucoid, CF, read-out: MIC), 16 mg/mL (≈ 98 mM). The “effect on activity of carbapenems” value in assay [5] was “compromised the activity of carbapenems”. Also, the “interference with activity of the most commonly used antibiotics” value in assay [5] is recorded as “do not interfere”.
